Measurements from patent publication US20040176294A1, “Use of thyroid-stimulating hormone to induce lipolysis” (priority 2003, published 2004).

Tests used:
male ob/ob mice [1] = assay: Acute stimulation of lipolysis in vivo (serum glycerol and FFA); settings: CL 1 mg/kg IP
Method: TSH, the β3-adrenoreceptor agonist CL 316,243 (CL), and saline vehicle were examined for stimulation of lipolysis in mice following an overnight fast. […] Lipolysis was assessed as the change in serum glycerol or FFA compared to baseline.
C57BL/6 male ob/ob mice, age 10 weeks, were grouped to normalize weight (n=7-8 for each treatment; average group weight=37.8 g+/−0.4 g). Mice were housed individually for 18 hours prior to treatment, at which time food was withdrawn, with free access to water given. At approximately 8 a.m., the subjects were anesthetized with halothane and blood samples taken by retro-orbital eye bleeds. The blood was allowed to clot, and the serum was separated by centrifugation and frozen for later analysis. Test substances were administered by IP injection in a volume of 0.1 ml, and the animals replaced in their cages for 2 hours with free access to water. At 2 hours, the mice were sacrificed and blood drawn by cardiac puncture.
For measuring free fatty acids in serum, the method previously described for measuring free fatty acids in conditioned medium was followed, with the following modifications. […] The absorbance at 530 nm was measured on the Wallac Victor2 Multilabel counter. […]
Sigma reagent A was reconstituted to 0.5× the recommended concentration. […] The absorbance at 530 nm was measured on the Wallac Victor2 Multilabel counter.

male ob/ob mice [2] = assay: in vivo; settings: mouse
Method: (§1) 11-week old male ob/ob mice were individually caged and given a standard lab chow (4% fat) with free access to food and water. Animals were assigned to a treatment group (n=7-8, average weight 54.3+/−0.3 g per group), kept on a 12 hour dark cycle (6 PM to 6 AM), and injected each day between 7 and 9 AM. Chow consumed by each animal was weighed twice weekly. All animals received treatments IP with an injection volume of 0.1 ml. […] Thyroid hormone (T4) was administered at 1.5 μg/mouse for 4 days, reduced to 1 [μg/mouse for 10 days, and returned to 1.5 μg/mouse for the next 14 days. The vehicle controls received sterile saline.
(§2) After 25 days of treatment as described above, blood was sampled from all treated animals (n=7-8/group), serum separated, and analyzed for total T4 by a commercially available kit (Biocheck, Burlingame, Calif.).

male ob/ob mice [3] = assay: Chronic treatment of ob/ob mice: adipose tissue depot mass; format: in vivo; settings: after 4 weeks of treatment, n=4
Method: as §1
Four animals from each group were analyzed for evaluation of changes in adipose tissue depot mass after 4 weeks of treatment. Following sacrifice, brown scapular fat (IBAT) and intra-abdominal fat were dissected and the tissues weighed. […] Elevated thyroid hormone levels are known to act to stimulate]BAT. […] The mesangial fat depot was dissected and removed from the colon for weight determination. Mesangial fat is white adipose tissue and is only readily visualized and dissected in obese mice. Mesangial white fat was removed by carefully stripping the fat, associated matrix and vascular supporting bed from the length of the colon.

male ob/ob mice [4] = assay: Chronic treatment of ob/ob mice: liver steatosis histology score; format: in vivo; settings: H&E sections, n=4, vehicle score 4
Method: as §1
Liver sections were dissected from all treatment groups described above and mounted in paraffin following fixation with NBS-formalin. Sections were mounted and stained with hematotoxylin and eosin (H&E) for visualization of hepatic structural changes. The extent of liver steatosis was evaluated on a four-point scale, […], with zero displaying no signs of liver steatotosis, and 4, representing pronounced macrovesicular and microvesicular steatosis.

male ob/ob mice [5] = assay: Chronic treatment of ob/ob mice: intraperitoneal glucose tolerance test (IPGTT); format: in vivo; settings: 4 weeks of treatment; for baseline blood glucose: fasted four hours, n=4; for insulin sensitivity and glucose clearance versus vehicle: IPGTT glucose […]
Method: as §1
Following 4 weeks of daily treatment as described above, mice (n=4/group) were fasted for four hours immediately following the beginning of the light cycle, and a blood sample obtained before IP injection of a glucose solution (1.5 g/kg body weight). Blood samples were obtained at 20, 40, and 120 minutes following injection to evaluate changes in serum glucose and insulin. Glucose concentrations were determined with a Freestyle blood glucose monitor (Therasense Corp.), and insulin concentrations were determined with a commercial ELISA kit (Alpco Diagnostics, Windham N. H.).

male ob/ob mice [6] = assay: Chronic treatment of ob/ob mice: serum lipid analysis; format: in vivo; settings: 5 weeks of treatment, fasted 4 hours
Method: as §1
The study set used for the IPGTT was treated an additional 7 days before sacrifice (total treatment time of 5 weeks). Subject animals were fasted for 4 hours at the beginning of the light cycle, and serum was obtained at sacrifice under isoflurane anesthesia. Triglyceride and total cholesterol levels were determined with the Cholestech LDX blood analyzer (Cholestech Corporation, Hayward Calif.).

[7] = test system: differentiated 3T3 L1 adipocytes; assay: CRE-luciferase reporter (cAMP) assay in differentiated 3T3 L1 adipocytes; format: cell-based, murine; settings: differentiated 3T3 L1 cells, 4 hours
Excerpt: (§3) 3T3 L1 fibroblasts were differentiated into adipocytes and the cells were transduced with recombinant adenovirus containing a reporter construct, a firefly luciferase gene under the control of cAMP response element (CRE) enhancer sequences. This assay system detects cAMP-mediated gene induction downstream of activation of Gs-coupled G-protein coupled receptors (GPCR's). […] In a separate experiment, undifferentiated 3T3 L1 fibroblasts were transduced with the recombinant adenovirus. […] In another experiment, human primary adipocytes were also transduced with the recombinant adenovirus containing a reporter construct.
(§4) Cells were cultured at 37° C. in an 8% CO2 humidified incubator. Cells were seeded in collagen-coated 96-well plates (Becton Dickinson, cat. # 356407) at a density of 5,000 cells per well. Two days later, differentiation medium was added as follows: DMEM high glucose containing 10% fetal bovine serum (Hyclone, cat. # SH30071), 1 μg/ml insulin, 1 μM dexamethasone, and 0.5 mM 3-isobutyl-methyl xanthine (ICN, cat. #195262). The cells were incubated at 37° C. in 8% CO2 for 4 days and the medium replaced with DMEM high glucose containing 10% fetal bovine serum and 1 μg/ml insulin. The cells were incubated at 37° C. in 8% CO2 for 3 days, then the medium was replaced with DMEM high glucose containing 10% fetal bovine serum.

human primary adipocytes = assay: CRE-luciferase reporter (cAMP) assay in primary human adipocytes; format: cell-based; settings: 4 hours
Excerpt: as §3, §4

male ob/ob mice [8] = assay: Chronic treatment of ob/ob mice: body weight and food intake; format: in vivo; settings: daily IP treatment, 28 days
Method: as §1
Body weight changes were assessed as the percentage increase in body weight from the beginning of the study.

in vivo = assay: in vivo; design: species or system mice; settings: male, ob/ob, mouse
Method: as §1, §2

SMILES | serum glycerol and FFA levels (male ob/ob mice [1]) | total T4 in serum (male ob/ob mice [2]) [µg/dL] | brown scapular fat (IBAT) mass (male ob/ob mice [3]) [g] | mesangial white fat depot weight (male ob/ob mice [3]) [g] | average liver steatosis score (male ob/ob mice [4]) | baseline blood glucose (male ob/ob mice [5]) [mg/dL] | insulin sensitivity and glucose clearance versus vehicle (male ob/ob mice [5]) | serum triglyceride (male ob/ob mice [6]) [mg/dL] | total cholesterol (male ob/ob mice [6]) [mg/dL] | induction of luciferase expression [7] [fold] | induction of luciferase expression / reporter gene (human primary adipocytes) [fold] | percentage increase in body weight from the beginning of the study (male ob/ob mice [8]) | concentration at 25 days (in vivo) [ng/mL]
C[C@H](Cc1ccc2c(c1)OC(C(=O)[O-])(C(=O)[O-])O2)NC[C@H](O)c1cccc(Cl)c1.[Na+].[Na+] [CL 316,243] | significantly elevated serum glycerol and FFA levels | 5.14 ± 0.19 | 0.87 ± 0.03 | 1.53 ± 0.10 | 1 | 139 ± 9 | exhibited increased insulin sensitivity and increased clearance of the glucose load | 191 ± 9 | 198 ± 7 | – | – | – | –
CC(C)NCC(O)c1ccc(O)c(O)c1 (centres unmarked) [isoproterenol] | – | – | – | – | – | – | – | – | – | 50 | 22 | – | –
N[C@@H](Cc1cc(I)c(Oc2cc(I)c(O)c(I)c2)c(I)c1)C(=O)O [thyroxine] | – | – | 1.26 ± 0.03 | 1.18 ± 0.11 | 3 | 252 ± 34 | did not exhibit increased glucose clearance | 297 ± 30 | 231 ± 11 | – | – | 9.4+/−0.5% | 90.4
